Data on 52 molecules can be found in PubChem BioAssay AID1996.

Molecules are shown by their SMILES. Values after ≈ are worked out from the molar mass of the structure shown.

The conditions of this series: buffer; pH 7.4; 200.0 µM.
What is called solubility (kinetic) is the concentration staying in solution when a stock, usually in DMSO, is diluted into the medium. As for `CCC(=O)Nc1ccc(N/C(N)=N/c2nc(C)cc(C)n2)cc1`, the solubility (kinetic) was determined as 36.1 µg/mL (≈ 116 µM). The value for `CCCCN(C)S(=O)(=O)c1cc2c3c(c1)CCC(=O)N3CCC2` was 48.6 µg/mL (≈ 144 µM). As to `CCN(C(=O)Cc1c(C(=O)O)[nH]c2ccccc12)c1ccc(OC)cc1`, the kinetic solubility is more than 52.9 µg/mL. The value for `COCc1cc(=O)[nH]c(/N=C(\N)Nc2cccc(Cl)c2)n1` was 2.7 µg/mL (≈ 8.77 µM); that for `CC12CCC(=O)N1C(C(=O)Nc1ccccc1F)CS2` (configuration not stated) was more than 44.2 µg/mL; that for `Cc1ccc(S(=O)(=O)Nc2cc(C)on2)cc1` was 28.1 µg/mL (≈ 111 µM). `Cc1ccc2c(CC(=O)NNC(=O)c3ccncc3)coc2c1` had a solubility (kinetic) of more than 46.4 µg/mL.

Consider `CCc1ccccc1NC(=S)N(CCOC)C(C)c1ccco1` (configuration not stated), for which the solubility (kinetic) was 35.1 µg/mL (≈ 106 µM). The value for `N#C/C(=C\c1ccc(O)c(O)c1)C(=O)N1CCCC1` was 37.3 µg/mL (≈ 144 µM); that for `CC(=O)N/C(=C\c1ccc(F)cc1)C(=O)OCc1ccccc1` was more than 47 µg/mL; that for `CNC(=O)Cn1nc(C)c(S(=O)(=O)N2CCOCC2)c1C` was more than 47.5 µg/mL. For the molecule `COc1ccccc1/C=C/C(=O)OCC(=O)NC1CCCCCCC1`, the solubility (kinetic) came to 7.4 µg/mL (≈ 21.4 µM).

`O=C(NC1CCCC(C(F)(F)F)C1)c1ccc([N+](=O)[O-])o1` (configuration not stated) displayed a kinetic solubility of more than 45.9 µg/mL. The value for `CCOc1ccc(NC(=O)CCC(=O)c2ccc(F)cc2)cc1` was 2.5 µg/mL (≈ 7.93 µM).

Consider `COc1ccc(Cl)cc1S(=O)(=O)n1c([N+](=O)[O-])cnc1C`, for which the kinetic solubility came out at 31.1 µg/mL (≈ 93.7 µM).

With `O=C(NCCCCc1ccccc1)c1ccccc1Cl`, the kinetic solubility was more than 43.2 µg/mL.

`CC(=O)N1CC(=O)Nc2ccc(C)cc2C1c1ccccc1` (configuration not stated) showed a kinetic solubility of more than 44.2 µg/mL. The value for `CN(CC(=O)Nc1ccccc1C(=O)NC1CC1)Cc1ccco1` was more than 49.1 µg/mL; that for `O=C(NCCc1cnc[nH]1)c1ccc(-c2ccccc2)cc1` was 28.2 µg/mL (≈ 96.8 µM).

For the molecule `COc1ccc2c(c1)[C@@]13CCC=C[C@H]1[C@@H](C2)NCC3.Cl`, the solubility (kinetic) was more than 43.8 µg/mL. Take `COc1ccc2[nH]c(C(=O)O)c(NC(=O)c3ccccc3[N+](=O)[O-])c2c1`: the solubility (kinetic) is more than 53.3 µg/mL. The value for `COc1cccc(-c2cc(C(=O)NC3CCCC3)c3ccccc3n2)c1` was 1.3 µg/mL (≈ 3.75 µM); that for `CCc1ccccc1NC(=O)CNC(=O)c1ccc(OCc2cn3ccccc3n2)cc1` was 7.6 µg/mL (≈ 17.7 µM); that for `CS(=O)(=O)NCCCNc1ccc(C(F)(F)F)cc1[N+](=O)[O-]` was more than 51.2 µg/mL. `Cn1c(/C=C/c2ccccc2)nc2ccccc2c1=O` gave a solubility (kinetic) of 2.3 µg/mL (≈ 8.77 µM). In turn, `CC(C[N+](C)(C)C)OC(=O)C1(c2ccccc2)CCCC1` (configuration not stated) showed a solubility (kinetic) of 34.7 µg/mL. The value for `COc1ccc(NC(=S)NC23CN4CN(CN(C4)C2)C3)c(OC)c1` was more than 52.4 µg/mL; that for `CN(Cc1c(F)cccc1Cl)C(=O)c1cc2ccccc2o1` was 12.3 µg/mL (≈ 38.7 µM); that for `CCOc1ccc(S(=O)(=O)Nc2cnc3ccccc3c2)cc1` was more than 49.3 µg/mL. The value for `O=C(COc1ccccc1)Nc1ccncc1Cl` was 32.3 µg/mL (≈ 123 µM); that for `Cc1cccc(OCc2nc(C#N)c(N3CCCC3)o2)c1` was 9.6 µg/mL (≈ 33.9 µM); that for `COc1ccc(C(=O)c2nc3ccccc3n2C(C)C)cc1OC` was 46.1 µg/mL (≈ 142 µM).

In turn, `CC1=N/C(=C\c2ccccc2Cl)C(=O)O1` gave a solubility (kinetic) of 27.7 µg/mL (≈ 125 µM).

The molecule `c1ccc(CN2CCN(c3ncccn3)CC2)cc1` registered a solubility (kinetic) of 24.5 µg/mL (≈ 96.3 µM). The molecule `CC12CCC(=O)N1C(C(=O)Nc1cccc(F)c1)CS2` (configuration not stated) came in with a solubility (kinetic) of more than 44.2 µg/mL. The value for `Cn1cnnc1SCC(=O)NC1CC1` was more than 31.8 µg/mL; that for `Cc1onc(-c2ccccc2Cl)c1C(=O)NCc1ccccc1F` was more than 51.7 µg/mL.

The molecule `c1ccc(NC2=NCCS2)cc1` registered a solubility (kinetic) of 23.5 µg/mL (≈ 132 µM). The value for `Cc1[nH]nc(SCC(=O)Nc2cccc(O)c2)c1[N+](=O)[O-]` was more than 46.2 µg/mL; that for `Cc1cnc(C(=O)OCC(=O)c2c[nH]c3ccccc23)cn1` was 13.7 µg/mL (≈ 46.4 µM); that for `O=C(CSc1ccc([N+](=O)[O-])cn1)Nc1nccs1` was 1.9 µg/mL (≈ 6.41 µM). The value for `O=C(NC1CC1)c1cccc(Oc2ccccc2)c1` was more than 38 µg/mL; that for `COc1cccc(C(=O)NCc2ccc3c(c2)OCO3)c1OC` was more than 47.3 µg/mL; that for `COC(=O)c1sccc1NC(=O)c1ccccc1Br` was 2.3 µg/mL (≈ 6.76 µM). The value for `C[C@H](NC(=O)c1cccc([N+](=O)[O-])c1)C(=O)OCC(=O)c1ccccc1Br` was more than 65.3 µg/mL. Take `CC(C)(C)c1ccc(SCCc2ccncc2)cc1`: the solubility (kinetic) was found to be 6.5 µg/mL (≈ 23.9 µM). The value for `CNC(=O)CNC(=O)Nc1ccc(C)cc1` was more than 33.2 µg/mL.

On to `COc1ccc(-c2ccnc(-c3ccncc3)n2)cc1`, for which the kinetic solubility was more than 39.5 µg/mL.

Regarding `O=C(Nc1ccc2c(c1)OCO2)c1ccccc1`, the kinetic solubility is more than 36.2 µg/mL.

In turn, `O=C(CCN1C(=O)c2ccccc2S1(=O)=O)Nc1ccc(Cl)cc1` displayed a solubility (kinetic) of 0.9 µg/mL (≈ 2.47 µM). The value for `COc1cccc(C(=O)NCC(=O)OC(C)C(=O)NC23CC4CC(CC(C4)C2)C3)c1` (configuration not stated) was more than 62.2 µg/mL; that for `CC(NC(=O)c1ccc(S(=O)(=O)Nc2ccccc2Cl)cc1)c1ccncc1` (configuration not stated) was more than 62.4 µg/mL.
